From patent US8183279B2, “1,3-dihydroisoindole derivatives” (Merck Patent Gesellschaft Mit Beschrankter Haftung, priority 2007, dated 2012)

Biological target: T1, Recombinant human HSP90α (Homo sapiens, UniProt P07900)
T1 construct: host or cells: E. coli
Experiment: HSP90 inhibition, [3H]17AAG radioligand filter binding test
Conditions: competition with 0.08 μM [3H]17AAG, HSP90 1.5 μg/assay, 22° C., 30 min
Text: The binding of geldanamycin or 17-allylamino-17-demethoxygeldanamycin (17AAG) to HSP90 and competitive inhibition thereof can be utilised in order to determine the inhibitory activity of the compounds according to the invention (Carreras et al. 2003, Chiosis et al. 2002).
In the specific case, a radioligand filter binding test is used. The radioligand used here is tritium-labelled 17-allylaminogeldanamycin,
[3H]17AAG. This filter binding test allows a targeted search for inhibitors which interfere with the ATP binding site.
Recombinant human HSP90α(E. coli expressed, 95% purity);
[3H]17AAG (17-allylaminogeldanamycin, [allylamino-2,3-^3H. Specific activity: 1.11×10^12 Bq/mmol (Moravek, MT-1717);
HEPES filter buffer (50 mM HEPES, pH 7.0, 5 mM MgCl2, BSA 0.01%) Multiscreen FB (1 μm) filter plate (Millipore, MAFBNOB 50).
The 96-well microtitre filter plates are firstly irrigated and coated with 0.1% of polyethylenimine.
The test is carried out under the following conditions:
Reaction temperature 22° C.
Reaction time: 30 min., shaking at 800 rpm
50 mM HEPES HCl, pH 7.0, 5 mM MgCl2, 0.01% (w/v) of BSA
At the end of the reaction, the supernatant in the filter plate is removed by suction with the aid of a vacuum manifold (Multiscreen Separation System, Millipore), and the filter is washed twice.
The filter plates are then measured in a beta counter (Microbeta, Wallac) with scintillator (Microscint 20, Packard).
“% of control” is determined from the “counts per minutes” values, and the IC-50 value of a compound is calculated therefrom.

Row | SMILES | IC50 [nM]
1 | CCCCN(C)C(=O)c1cc(C(=O)N2Cc3ccc(C(=O)OC)cc3C2)c(O)cc1O [Compound A39, Methyl 2-[5-(butylmethylcarbamoyl)-2,4-dihydroxybenzoyl]-2,3-dihydro-1H-isoindole-5-carboxylate] | 10 to 1000
2 | CCCCN(C)C(=O)c1cc(C(=O)N2Cc3ccc(O)cc3C2)c(O)cc1O [Compound A1, N-butyl-2,4-dihydroxy-5-(5-hydroxy-1,3-dihydroisoindole-2-carbonyl)-N-methylbenzamide] | 10 to 1000
3 | CCCCN(C)C(=O)c1cc(C(=O)N2Cc3ccc(OCC(N)=O)cc3C2)c(O)cc1O [Compound A32, N-Butyl-5-(5-carbamoylmethoxy-1,3-dihydroisoindole-2-carbonyl)-2,4-dihydroxy-N-methylbenzamide] | 10 to 1000
4 | CCCCN(C)C(=O)c1cc(C(=O)N2Cc3ccc(-c4ccccc4)cc3C2)c(O)cc1O [Compound A38, N-Butyl-2,4-dihydroxy-N-methyl-5-(5-phenyl-1,3-dihydroisoindole-2-carbonyl)benzamide] | 10 to 1000
5 | CCCCN(C)C(=O)c1cc(C(=O)N2Cc3ccc(OCCN4CCCCC4)cc3C2)c(O)cc1O [Compound A8] | 10 to 1000
6 | CCCCN(C)C(=O)c1cc(C(=O)N2Cc3ccc(OCCN(C)CC)cc3C2)c(O)cc1O [Compound A40, N-Butyl-5-{5-[2-(ethylmethylamino)ethoxy]-1,3-dihydroisoindole-2-carbonyl}-2,4-dihydroxy-N-methylbenzamide] | 10 to 1000
7 | Cc1ccc(CN(C)C(=O)c2cc(C(=O)N3Cc4ccc(OCCN(C)C)cc4C3)c(O)cc2O)s1 [Compound A43, 5-[5-(2-Dimethylaminoethoxy)-1,3-dihydroisoindole-2-carbonyl]-2,4-dihydroxy-N-methyl-N-(5-methylthiophen-2-ylmethyl)benzamide] | 10 to 1000
8 | CCCCN(C)C(=O)c1cc(C(=O)N2Cc3ccc(OCCCC#N)cc3C2)c(O)cc1O [Compound A33, N-Butyl-5-[5-(3-cyanopropoxy)-1,3-dihydroisoindole-2-carbonyl]-2,4-dihydroxy-N-methylbenzamide] | 10 to 1000
9 | CN(C)CCOc1ccc2c(c1)CN(C(=O)c1cc(C(=O)N3Cc4ccccc4C3)c(O)cc1O)C2 [Compound A46, [5-(1,3-Dihydroisoindole-2-carbonyl)-2,4-dihydroxyphenyl]-[5-(2-dimethylaminoethoxy)-1,3-dihydroisoindol-2-yl]methanone] | 10 to 1000
10 | CCCCN(C)C(=O)c1cc(C(=O)N2Cc3ccc(OCCCNC)cc3C2)c(O)cc1O [Compound A47, N-Butyl-2,4-dihydroxy-N-methyl-5-[5-(3-methylaminopropoxy)-1,3-dihydroisoindole-2-carbonyl]benzamide] | 10 to 1000
11 | CNCCOc1ccc2c(c1)CN(C(=O)c1cc(C(=O)N(C)Cc3ccco3)c(O)cc1O)C2 [Compound A49, N-Furan-2-ylmethyl-2,4-dihydroxy-N-methyl-5-[5-(2-methylaminoethoxy)-1,3-dihydroisoindole-2-carbonyl]benzamide] | 10 to 1000

The next lines start with the values.

Row | IC50 [nM] | SMILES
12 | 10 to 1000 | CCCCN(C)C(=O)c1cc(C(=O)N2Cc3ccc(OCCN(C)C)cc3C2)c(O)cc1O [Compound A3, N-butyl-5-[5-(2-dimethylaminoethoxy)-1,3-dihydroisoindole-2-carbonyl]-2,4-dihydroxy-N-methylbenzamide]
13 | 10 to 1000 | CCCCN(C)C(=O)c1cc(C(=O)N2Cc3ccc(OCCN4CCNCC4)cc3C2)c(O)cc1O [Compound A7]
14 | 10 to 1000 | CN(C)CCOc1ccc2c(c1)CN(C(=O)c1cc(C(=O)N(C)Cc3ccco3)c(O)cc1O)C2 [Compound A44, 5-[5-(2-Dimethylaminoethoxy)-1,3-dihydroisoindole-2-carbonyl]-N-furan-2-ylmethyl-2,4-dihydroxy-N-methylbenzamide]
15 | 10 to 1000 | CCCCN(C)C(=O)c1cc(C(=O)N2Cc3ccc(OCCN4CCOCC4)cc3C2)c(O)cc1O [Compound A6]
16 | 10 to 1000 | CCCCN(C)C(=O)c1cc(C(=O)N2Cc3ccccc3C2)c(O)cc1O [Compound A2, N-butyl-2,4-dihydroxy-5-(1,3-dihydroisoindole-2-carbonyl)-N-methylbenzamide]
17 | 10 to 1000 | CNCCOc1ccc2c(c1)CN(C(=O)c1cc(C(=O)N(C)Cc3ccc(C)s3)c(O)cc1O)C2 [Compound A48, 2,4-Dihydroxy-N-methyl-5-[5-(2-methylaminoethoxy)-1,3-dihydroisoindole-2-carbonyl]-N-(5-methylthiophen-2-ylmethyl)benzamide]
18 | 10 to 1000 | CN(C)CCOc1ccc2c(c1)CN(C(=O)c1cc(C(=O)N(C)Cc3ccccc3)c(O)cc1O)C2 [Compound A45, N-Benzyl-5-[5-(2-dimethylaminoethoxy)-1,3-dihydroisoindole-2-carbonyl]-2,4-dihydroxy-N-methylbenzamide]
19 | 10 to 1000 | CCCCN(C)C(=O)c1cc(C(=O)N2Cc3ccc(OCCNC)cc3C2)c(O)cc1O [Compound A35, N-Butyl-2,4-dihydroxy-N-methyl-5-[5-(2-methylaminoethoxy)-1,3-dihydroisoindole-2-carbonyl]benzamide]
20 | 10 to 1000 | CCCCN(C)C(=O)c1cc(C(=O)N2Cc3ccc(C(N)=O)cc3C2)c(O)cc1O [Compound A42]
21 | 10 to 1000 | CCCCN(C)C(=O)c1cc(C(=O)N2Cc3ccc(OCCO)cc3C2)c(O)cc1O [Compound A34, N-Butyl-2,4-dihydroxy-5-[5-(2-hydroxyethoxy)-1,3-dihydroisoindole-2-carbonyl]-N-methylbenzamide]
22 | 10 to 1000 | CCCCN(C)C(=O)c1cc(C(=O)N2Cc3ccc(C(=O)N(C)C)cc3C2)c(O)cc1O [Compound A41, N,N'-Dimethyl-2-[5-(butylmethylcarbamoyl)-2,4-dihydroxybenzoyl]-2,3-dihydro-1H-isoindole-5-carboxamide]
